# Measurements as given in patent publication US20150105252A1, “SUBSTITUTED PYRAZOLES AS HERBICIDES” (E I DU PONT DE NEMOURS AND COMPANY, priority 2013, published 2015).
# Columns and labels:
# barnyardgrass [1] = assay: Test A preemergence; assay type: in vivo, Echinochloa crus-galli; conditions: preemergence
# Outline: (§1)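 Ratings express plant response from 0 (no effect) to 100 (complete control), judged visually against untreated controls after approximately 10 days in the greenhouse. Preemergence applications were made as directed soil sprays onto seeded loam–sand mix, and postemergence applications onto 2–10 cm plants at one- to two-leaf stage.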
# crabgrass, large [2] = assay: Test A preemergence; assay type: in vivo, Digitaria sanguinalis; conditions: preemergence
# Outline: as §1
# velvetleaf [3] = assay: Test A preemergence; assay type: in vivo, Abutilon theophrasti; conditions: preemergence
# Outline: as §1
# barnyardgrass [4] = assay: Test A postemergence; assay type: in vivo, Echinochloa crus-galli
# Outline: as §1
# crabgrass, large [5] = assay: Test A postemergence; assay type: in vivo, Digitaria sanguinalis
# Outline: as §1
# pigweed = assay: Test A postemergence; assay type: in vivo, Amaranthus retroflexus
# Outline: as §1
# nutsedge, yellow = assay: Test C preemergence; assay type: in vivo, Cyperus esculentus; conditions: for Nutsedge, Yellow plant response rating: preemergence
# Outline: (§2)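 Greenhouse pot test: preemergence application onto freshly seeded loam/sand mix, postemergence application onto seedlings (1–4 leaves, 2–18 cm) in peat-vermiculite substrate. Responses scored visually 13 to 15 days later relative to controls, where 0 means no effect and 100 means complete control; a dash indicates no result.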
# soybean [6] = assay: Test C preemergence; assay type: in vivo, Glycine max; conditions: for Soybean plant response rating: preemergence
# Outline: as §2
# oilseed rape [7] = assay: Test C preemergence; assay type: in vivo, Brassica napus; conditions: for Oilseed Rape plant response rating: preemergence
# Outline: as §2
# velvetleaf [8] = assay: Test C preemergence; assay type: in vivo, Abutilon theophrasti; conditions: for Velvetleaf plant response rating: preemergence
# Outline: as §2
# wheat = assay: Test C postemergence; assay type: in vivo, Triticum aestivum
# Outline: as §2
# corn = assay: Test C postemergence; assay type: in vivo, Zea mays
# Outline: as §2
# soybean [9] = assay: Test C postemergence; assay type: in vivo, Glycine max
# Outline: as §2
# barnyardgrass [10] = assay: Test C postemergence; assay type: in vivo, Echinochloa crus-galli
# Outline: as §2
# oilseed rape [11] = assay: Test C postemergence; assay type: in vivo, Brassica napus
# Outline: as §2
# velvetleaf [12] = assay: Test C postemergence; assay type: in vivo, Abutilon theophrasti
# Outline: as §2
# [13] = 125 g ai/ha, visual injury, 0 to 100 scale, approx. 10 days
# [14] = 500 g ai/ha, visual injury after approx. 10 days, 0 to 100 scale (0 no effect, 100 complete control)
# [15] = Postemergence, 500 g ai/ha, visual rating after approx. 10 days, 0 to 100 scale (0 no effect, 100 complete control)
# [16] = postemergence, 125 g ai/ha, about 10 days, visual rating on 0 to 100 scale (0 no effect, 100 complete control)
# [17] = 31 g ai/ha, visual rating, scale 0 to 100 (0 no effect, 100 complete control), 13 to 15 days
# [18] = 62 g ai/ha, scale 0 to 100 (0 no effect, 100 complete control), 13 to 15 days
# [19] = 125 g ai/ha, scale 0 to 100, 0 is no effect, 100 is complete control
# [20] = Postemergence, 31 g ai/ha, visually evaluated after 13 to 15 days
# [21] = postemergence, 62 g ai/ha, scale 0 to 100
# [22] = postemergence, 250 g ai/ha, scale 0 to 100 (0 no effect, 100 complete control)
# [23] = postemergence, 125 g ai/ha, scale 0 to 100, 0 no effect, 100 complete control
smiles,measurement,setting,value
CCc1cc(C(=O)NCC(F)(F)F)nn1Cc1nc(C(F)(F)F)nn1C [Compound 107],Barnyardgrass plant response rating,barnyardgrass [1]; [13],100
same,Barnyardgrass plant response rating,barnyardgrass [1]; [14],100
same,"Crabgrass, Large plant response rating","crabgrass, large [2]; [13]",100
same,"Crabgrass, Large plant response rating","crabgrass, large [2]; [14]",100
same,Velvetleaf plant response rating,velvetleaf [3]; [13],90
same,Velvetleaf plant response rating,velvetleaf [3]; [14],100
same,Barnyardgrass plant response rating,barnyardgrass [4]; [15],90
same,Barnyardgrass plant response rating,barnyardgrass [4]; [16],80
same,"Crabgrass, Large plant response rating","crabgrass, large [5]; [15]",90
same,"Crabgrass, Large plant response rating","crabgrass, large [5]; [16]",80
same,Pigweed plant response rating,pigweed; [15],100
same,Pigweed plant response rating,pigweed; [16],100
same,"Plant response rating (scale of 0 to 100), Nutsedge, Yellow","nutsedge, yellow; Preemergence, 250 g ai/ha",100
same,"Nutsedge, Yellow plant response rating","nutsedge, yellow; [17]",15
same,"Nutsedge, Yellow plant response rating","nutsedge, yellow; [18]",60
same,"Nutsedge, Yellow plant response rating","nutsedge, yellow; [19]",85
same,"Plant response rating (scale of 0 to 100), Soybean","soybean [6]; Preemergence, 250 g ai/ha",95
same,Soybean plant response rating,soybean [6]; [17],15
same,Soybean plant response rating,soybean [6]; [18],95
same,Soybean plant response rating,soybean [6]; [19],95
same,"Plant response rating (scale of 0 to 100), Oilseed Rape","oilseed rape [7]; Preemergence, 250 g ai/ha",100
same,Oilseed Rape plant response rating,oilseed rape [7]; [17],98
same,Oilseed Rape plant response rating,oilseed rape [7]; [18],100
same,Oilseed Rape plant response rating,oilseed rape [7]; [19],100
same,"Plant response rating (scale of 0 to 100), Velvetleaf","velvetleaf [8]; Preemergence, 250 g ai/ha",100
same,Velvetleaf plant response rating,velvetleaf [8]; [17],60
same,Velvetleaf plant response rating,velvetleaf [8]; [18],85
same,Velvetleaf plant response rating,velvetleaf [8]; [19],100
same,"Plant response rating (scale of 0 to 100 where 0 is no effect and 100 is complete control), Wheat",wheat; [20],0
same,Wheat plant response rating,wheat; [21],5
same,"Plant response rating, Wheat",wheat; [22],30
same,"Plant response rating, Wheat",wheat; [23],20
same,"Plant response rating (scale of 0 to 100 where 0 is no effect and 100 is complete control), Corn",corn; [20],5
same,Corn plant response rating,corn; [21],5
same,"Plant response rating, Corn",corn; [22],40
same,"Plant response rating, Corn",corn; [23],5
same,"Plant response rating (scale of 0 to 100 where 0 is no effect and 100 is complete control), Soybean",soybean [9]; [20],20
same,Soybean plant response rating,soybean [9]; [21],50
same,"Plant response rating, Soybean",soybean [9]; [22],90
same,"Plant response rating, Soybean",soybean [9]; [23],50
same,"Plant response rating (scale of 0 to 100 where 0 is no effect and 100 is complete control), Barnyardgrass",barnyardgrass [10]; [20],0
same,Barnyardgrass plant response rating,barnyardgrass [10]; [21],0
same,"Plant response rating, Barnyardgrass",barnyardgrass [10]; [22],30
same,"Plant response rating, Barnyardgrass",barnyardgrass [10]; [23],5
same,"Plant response rating (scale of 0 to 100 where 0 is no effect and 100 is complete control), Oilseed Rape",oilseed rape [11]; [20],5
same,Oilseed Rape plant response rating,oilseed rape [11]; [21],60
same,"Plant response rating, Oilseed Rape",oilseed rape [11]; [22],80
same,"Plant response rating, Oilseed Rape",oilseed rape [11]; [23],60
same,"Plant response rating (scale of 0 to 100 where 0 is no effect and 100 is complete control), Velvetleaf",velvetleaf [12]; [20],30
same,Velvetleaf plant response rating,velvetleaf [12]; [21],30
same,"Plant response rating, Velvetleaf",velvetleaf [12]; [22],50
same,"Plant response rating, Velvetleaf",velvetleaf [12]; [23],35
